Experimental data taken from US8481597B2, “Use of (-) (3-trihalomethylphenoxy) (4-halophenyl) acetic acid derivatives for treatment of insulin resistance, type 2 diabetes, hyperlipidemia and hyperuricemia” (Metabolex, Inc., priority 1999, dated 2013).
“Also recorded” adds a separate entry of the source.

System: C57BL/6J db/db mice
Experiment: Prevention of diabetes and alleviation of hypertriglyceridemia in db/db mice (Example 15)
Format: in vivo
Settings: 150 mg/kg/day in chow for 9 weeks
Protocol: Blood samples were taken at 8-10 AM once a week for 9 weeks under non-fasting condition. Food intake and body weight were measured every 1-3 days. Plasma glucose and triglyceride concentrations were determined colorimetrically using kits from Sigma Chemical Co (No. 315 and No. 339, St. Louis, Mo., USA). Plasma insulin levels were measured using RIA assay kit purchased from Linco Research (St. Charles, Mo.).

CC(=O)NCCOC(=O)C(Oc1cccc(C(F)(F)F)c1)c1ccc(Cl)cc1 (single isomer, unassigned; (-)) [(−) halofenate, (−) 2-acetamidoethyl 4-chlorophenyl-(3-trifluoromethylphenoxy)acetate]
increase of plasma glucose levels with age, in words: prevented or significantly delayed | plasma insulin concentration, in words: maintained the plasma insulin concentration | plasma triglyceride concentration, in words: alleviated the increase of plasma triglyceride concentration; also recorded: alleviated hyperlipidemia
